In patent publication US6025365A, “Chelerythrine and radiation combined tumor therapy” (Arch Development Corp., priority 1997, dated 2000):

How the values were obtained:
WEHI-231 cells = assay: Apoptosis / cell death of WEHI-231 (propidium iodide FACS, gel electrophoresis, DAPI); type: cell-based, murine; conditions: 24 hours; chelerythrine 10 μM or calphostin C 250 nM
Description: Cells undergoing apoptosis also shrink in size.
Cells, 5×10^5, were centrifuged at 1000 rpm and resuspended in approximately 100 μl cell culture media. The cell suspension was then mixed with 100 μl of DAPI (4',6-iamidino-2-phenylindole, Sigma D9542, 1 μg/ml in PBT (PBS+1% Triton X-100)). One drop of this mixture was placed on a microslide with a coverslip. The cells were viewed by fluorescence microscopy using an Olympus BX-40 microscope with a 100 Watt Mercury lamp, a 16 or 40 X Fluorite objective, N.A. 0.75, (Leco #1-UB527) and a UV filter cube (ex 330-385 nm, em 420 nm, wide band pass, Leco #U-M536). Images were photographed using an Optronics cooled low-light video camera (Leco #DEI-470TB) to which was attached a 2X coupler (Leco #HR200-CMT). The image was saved to a digital file at 72 dpi.
DNA degradation was assessed as previously described (Gottschalk et al., 1993; 1994). Briefly, following treatment in 100 mm plates or 24 well plates, cells were collected and lysed in 0.5 ml lysis buffer (0.6% SDS+10 mM EDTA, pH 7.0). NaCl was added to a final concentration of 1M, mixed by inversion, incubated for 12 hours at 4° C. and then spun at 14,000 g for 30 minutes. Samples were treated with chloroform (1:1) and precipitated in ethanol prior to electrophoresis in a 3% agarose gel and visualized with ethidium bromide.

L-1210 tumor cells = conditions: l1210 cells; cited from earlier work
acidic sphingomyelinase = assay: Mixed micellar assay, acidic sphingomyelinase activity in treated SQ-20B cells; type: cell-based, human; conditions: 5 μM chelerythrine 30 minutes then 10 Gy; within 5 minutes of IR
Description: (§1) FIG. 5A. […] The mixed micellar assay for sphingomyelinase activity was used to quantitate increased enzymatic activity.
(§2) The mixed micellar sphingomyelinase assay using ^[14] C labeled sphingomyelin was performed as described (Wiegmann et al., 1994) with minor modifications as described herein. Exponentially growing cells 2×10^7 were treated, collected, and lysed in 200 μl of neutral buffer (20 mM Hepes, pH 7.4; 10 mM MgCl2, 2 mM EDTA, 5 mM DTT, […], 10 mM b-glycerolphosphate, 750 μM ATP, 1 mM PMSF, Leupeptin, Pepstatin, 2% Triton X-100) or an acid buffer (pH=5.5, 2% Triton X-100, 1 mM PMSF, Leupeptin, Pepstatin). After incubation for 5 minutes at 4° C., cells were homogenized by sonication and cell debris were removed by low speed centrifugation (800×g). The protein concentration was measured using the BioRad protein assay system (BioRad). Protein (50 μg) was incubated for 2 hours at 37° C. in a buffer (1 ml final volume) containing 20 mM HEPES, 1 mM MgCl2, and 0.9 μl [N-methyl-^14 C sphingomyelin].

neutral sphingomyelinase [1] = assay: Mixed micellar assay, neutral sphingomyelinase activity in treated WEHI-231 cells; type: cell-based, murine; conditions: chelerythrine, within 30 minutes; SD
Description: FIG. 7C. Graph of neutral and acidic sphingomyelinase activity normalized to percent of control. Cells (2×10^7) were treated with chelerythrine for 30 minutes prior to being assayed for neutral or acidic sphingomyelinase activity. Error bars represent +/- SEM from 4 individual studies with duplicate determinants.
as §2, with “sphingomyelin]. […] Radioactive phosphorylcholine was measured by scintillation counting. Data is expressed as a percent of control for both the acidic and neutral sphingomyelinases. […]” for “sphingomyelin].”

neutral sphingomyelinase [2] = assay: Mixed micellar assay, neutral sphingomyelinase activity in treated SQ-20B cells; type: cell-based, human; conditions: 5 μM chelerythrine 30 minutes then 10 Gy; within 5 minutes of IR
Description: as §1, §2

Question: What does the source list for `COc1ccc2c(c[n+](C)c3c4cc5c(cc4ccc23)OCO5)c1OC` [chelerythrine, 1,2-dimethoxy-12-methyl[1,3]benzodioxolo[5,6-c]phenanthridinium]?
Answer: cell death (WEHI-231 cells): greater than 90%; IC50 (L-1210 tumor cells): 53 nM; acidic sphingomyelinase activity, x-rays and chelerythrine (acidic sphingomyelinase): about 170 % of control; neutral sphingomyelinase activity (neutral sphingomyelinase [1]): 235% (+/-38 SD); neutral sphingomyelinase activity, x-rays and chelerythrine (neutral sphingomyelinase [2]): about 200 % of control
